Experiment [1] has as its system MCF-7 human breast cancer cells. The experiment in a line: [14C]acetate incorporation into total lipids (fatty acid synthesis in whole cells). It is filed as cell-based. The note with it: for IC50: Homo sapiens, MCF7, MCF-7 cells; for 14C (IC50): MCF-7 cells. The method, then:
Measurement of [^14C]Acetate Incorporation into Total Lipids and Determination of IC50 of Compounds
This assay measures the incorporation of [^14C] acetate into total lipids and is a measure of fatty acid synthesis pathway activity in vitro. It is utilized to measure inhibition of fatty acid synthesis in vitro.
MCF-7 human breast cancer cells cultured as above, are plated at 5×10^4 cells per well in 24-well plates. Following overnight incubation, the compounds to be tested, solubilized in DMSO, are added at 5, 10, and 20 μg/ml in triplicate, with lower concentrations tested if necessary. DMSO is added to triplicate wells for a vehicle control. C75 is run at 5 and 10 μg/ml in triplicate as positive controls. After 4 hours of incubation, 0.25 μCi of [^14C]acetate (10 μl volume) is added to each well.
After 2 hours of additional incubation, medium is aspirated from the wells and 800 μl of chloroform:methanol (2:1) and 700 μl of 4 mM MgCl2 is added to each well. Contents of each well are transferred to 1.5 ml Eppendorf tubes, and spun at full-speed for 2 minutes in a high-speed Eppendorf Microcentrifuge 5415D. After removal of the aqueous (upper) layer, an additional 700 μl of chloroform:methanol (2:1) and 500 μl of 4 mM MgCl2 are added to each tube and then centrifuged for 1 minutes as above. The aqueous layer is removed with a Pasteur pipette and discarded. An additional 400 μl of chloroform:methanol (2:1) and 200 μl of 4 mM MgCl2 are added to each tube, then centrifuged and aqueous layer is discarded. The lower (organic) phase is transferred into a scintillation vial and dried at 40° C. under N2 gas. Once dried, 3 ml of scintillant (APB #NBC5104) is added and vials are counted for ^14C. The Beckman Scintillation counter calculates the average cpm values for triplicates.
The IC50 for the compounds is defined as the concentration of drug leading to a 50% reduction in [^14C] acetate incorporation into lipids compared to controls. This is determined by plotting the average cpm for each inhibitor concentration tested, performing linear regression and computing the best-fit line, r^2 values, and 95% confidence intervals. The average cpm values are computed by the Beckman scintillation counter (model LS6500) for each compound concentration. Computation of linear regression, best-fit line, r^2, and 95% confidence intervals are calculated using Prism Version 3.0 (Graph Pad Software).

A further experiment has as its target T1, purified human FAS (Homo sapiens, UniProt P49327).
T1 construct: Human FAS was purified from cultured ZR-75-1 human breast cancer cells; endogenous in cells; host or cells: ZR-75-1 human breast cancer cells (ATCC); endogenous enzyme purified by PEG precipitation and Mono Q chromatography
The experiment can be described thus: Measurement of FAS enzymatic activity (NADPH oxidation) and IC50. It is filed as biochemical. The note with it: purified human FAS from ZR-75-1 cells, malonyl-CoA dependent NADPH oxidation. The method, then: Human FAS was purified from cultured ZR-75-1 human breast cancer cells obtained from the American Type Culture Collection. The procedure, adapted from Linn et al., 1981, and Kuhajda et al, 1994, utilizes hypotonic lysis, successive polyethyleneglycol (PEG) precipitations, and anion exchange chromatography. ZR-75-1 cells are cultured at 37° C. with 5% CO2 in RPMI culture medium with 10% fetal bovine serum, penicillin and streptomycin.
Ten T150 flasks of confluent cells are lysed with 1.5 ml lysis buffer (20 mM Tris-HCl pH 7.5, 1 mM EDTA, 0.1 mM phenylmethanesulfonyl fluoride (PMSF), 0.1% Igepal CA-630) and dounce homogenized on ice for 20 strokes. The lysate is centrifuged in JA-20 rotor (Beckman) at 20,000 rpm for 30 minutes at 4° C. and the supernatant is brought to 42 ml with lysis buffer. A solution of 50% PEG 8000 in lysis buffer is added slowly to the supernatant to a final concentration of 7.5%. After rocking for 60 minutes at 4° C., the solution is centrifiged in JA-20 rotor (Beckman) at 15,000 rpm for 30 minutes at 4° C. Solid PEG 8000 is then added to the supernatant to a final concentration of 15%. After the rocking and centrifugation is repeated as above, the pellet is resuspended overnight at 4° C. in 10 ml of Buffer A (20 mM K2HPO4, pH 7.4). After 0.45 μM filtration, the protein solution is applied to a Mono Q 5/5 anion exchange column (Pharmacia). The column is washed for 15 minutes with buffer A at 1 ml/minute, and bound material is eluted with a linear 60-ml gradient over 60 minutes to 1 M KCl. FAS (MW˜270 kD) typically elutes at 0.25 M KCl in three 0.5 ml fractions identified using 4-15% SDS-PAGE with Coomassie G250 stain (Bio-Rad). FAS protein concentration is determined using the Coomassie Plus Protein Assay Reagent (Pierce) according to manufacturer's specifications using BSA as a standard This procedure results in substantially pure preparations of FAS (>95%) as judged by Coomassie-stained gels.
Measurement of FAS Enzymatic Activity and Determination of the IC50 of the Compounds
FAS activity is measured by monitoring the malonyl-CoA dependent oxidation of NADPH spectrophotometrically at OD340 in 96-well plates (Dils et al and Arslanian et at, 1975). Each well contains 2 μg purified FAS, 100 mM K2HPO4, pH 6.5, 1 mM dithiothreitol (Sigma), and 187.5 μM β-NADPH (Sigma). Stock solutions of inhibitors are prepared in DMSO at 2, 1, and 0.5 mg/ml resulting in final concentrations of 20, 10, and 5 μg/ml when 1 μl of stock is added per well. For each experiment, cerulenin (Sigma) is run as a positive control along with DMSO controls, inhibitors, and blanks (no FAS enzyme) all in duplicate.
The assay is performed on a Molecular Devices SpectraMax Plus Spectrophotometer. The plate containing FAS, buffers, inhibitors, and controls are placed in the spectrophotometer heated to 37° C. Using the kinetic protocol, the wells are blanked on duplicate wells containing 100 μl of 100 mM K2HPO4, pH 6.5 and the plate is read at OD340 at 10 sec intervals for 5 minutes to measure any malonyl-CoA independent oxidation of NADPH. The plate is removed from the spectrophotometer and malonyl-CoA (67.4 μM, final concentration per well) and acetyl-CoA (61.8 μM, final concentration per well) are added to each well except to the blanks. The plate is read again as above with the kinetic protocol to measure the malonyl-CoA dependent NADPH oxidation. The difference between the Δ OD340 for the malonyl-CoA dependent and non-malonyl-CoA dependent NADPH oxidation is the specific FAS activity. Because of the purity of the FAS preparation, non-malonyl-CoA dependent NADPH oxidation is negligible.
The IC50 for the compounds against FAS is determined by plotting the Δ OD340 for each inhibitor concentration tested, performing linear regression and computing the best-fit line, r^2 values, and 95% confidence intervals. The concentration of compound yielding 50% inhibition of FAS is the IC50. […]

Converted amounts (≈) assume the structure as drawn.

From patent US20060241177A1, “Novel compounds, pharmaceutical compositions containing same, and methods of use for same” (priority 2002, published 2006) come the findings set out here.

T1 sequence (P49327 whole entry): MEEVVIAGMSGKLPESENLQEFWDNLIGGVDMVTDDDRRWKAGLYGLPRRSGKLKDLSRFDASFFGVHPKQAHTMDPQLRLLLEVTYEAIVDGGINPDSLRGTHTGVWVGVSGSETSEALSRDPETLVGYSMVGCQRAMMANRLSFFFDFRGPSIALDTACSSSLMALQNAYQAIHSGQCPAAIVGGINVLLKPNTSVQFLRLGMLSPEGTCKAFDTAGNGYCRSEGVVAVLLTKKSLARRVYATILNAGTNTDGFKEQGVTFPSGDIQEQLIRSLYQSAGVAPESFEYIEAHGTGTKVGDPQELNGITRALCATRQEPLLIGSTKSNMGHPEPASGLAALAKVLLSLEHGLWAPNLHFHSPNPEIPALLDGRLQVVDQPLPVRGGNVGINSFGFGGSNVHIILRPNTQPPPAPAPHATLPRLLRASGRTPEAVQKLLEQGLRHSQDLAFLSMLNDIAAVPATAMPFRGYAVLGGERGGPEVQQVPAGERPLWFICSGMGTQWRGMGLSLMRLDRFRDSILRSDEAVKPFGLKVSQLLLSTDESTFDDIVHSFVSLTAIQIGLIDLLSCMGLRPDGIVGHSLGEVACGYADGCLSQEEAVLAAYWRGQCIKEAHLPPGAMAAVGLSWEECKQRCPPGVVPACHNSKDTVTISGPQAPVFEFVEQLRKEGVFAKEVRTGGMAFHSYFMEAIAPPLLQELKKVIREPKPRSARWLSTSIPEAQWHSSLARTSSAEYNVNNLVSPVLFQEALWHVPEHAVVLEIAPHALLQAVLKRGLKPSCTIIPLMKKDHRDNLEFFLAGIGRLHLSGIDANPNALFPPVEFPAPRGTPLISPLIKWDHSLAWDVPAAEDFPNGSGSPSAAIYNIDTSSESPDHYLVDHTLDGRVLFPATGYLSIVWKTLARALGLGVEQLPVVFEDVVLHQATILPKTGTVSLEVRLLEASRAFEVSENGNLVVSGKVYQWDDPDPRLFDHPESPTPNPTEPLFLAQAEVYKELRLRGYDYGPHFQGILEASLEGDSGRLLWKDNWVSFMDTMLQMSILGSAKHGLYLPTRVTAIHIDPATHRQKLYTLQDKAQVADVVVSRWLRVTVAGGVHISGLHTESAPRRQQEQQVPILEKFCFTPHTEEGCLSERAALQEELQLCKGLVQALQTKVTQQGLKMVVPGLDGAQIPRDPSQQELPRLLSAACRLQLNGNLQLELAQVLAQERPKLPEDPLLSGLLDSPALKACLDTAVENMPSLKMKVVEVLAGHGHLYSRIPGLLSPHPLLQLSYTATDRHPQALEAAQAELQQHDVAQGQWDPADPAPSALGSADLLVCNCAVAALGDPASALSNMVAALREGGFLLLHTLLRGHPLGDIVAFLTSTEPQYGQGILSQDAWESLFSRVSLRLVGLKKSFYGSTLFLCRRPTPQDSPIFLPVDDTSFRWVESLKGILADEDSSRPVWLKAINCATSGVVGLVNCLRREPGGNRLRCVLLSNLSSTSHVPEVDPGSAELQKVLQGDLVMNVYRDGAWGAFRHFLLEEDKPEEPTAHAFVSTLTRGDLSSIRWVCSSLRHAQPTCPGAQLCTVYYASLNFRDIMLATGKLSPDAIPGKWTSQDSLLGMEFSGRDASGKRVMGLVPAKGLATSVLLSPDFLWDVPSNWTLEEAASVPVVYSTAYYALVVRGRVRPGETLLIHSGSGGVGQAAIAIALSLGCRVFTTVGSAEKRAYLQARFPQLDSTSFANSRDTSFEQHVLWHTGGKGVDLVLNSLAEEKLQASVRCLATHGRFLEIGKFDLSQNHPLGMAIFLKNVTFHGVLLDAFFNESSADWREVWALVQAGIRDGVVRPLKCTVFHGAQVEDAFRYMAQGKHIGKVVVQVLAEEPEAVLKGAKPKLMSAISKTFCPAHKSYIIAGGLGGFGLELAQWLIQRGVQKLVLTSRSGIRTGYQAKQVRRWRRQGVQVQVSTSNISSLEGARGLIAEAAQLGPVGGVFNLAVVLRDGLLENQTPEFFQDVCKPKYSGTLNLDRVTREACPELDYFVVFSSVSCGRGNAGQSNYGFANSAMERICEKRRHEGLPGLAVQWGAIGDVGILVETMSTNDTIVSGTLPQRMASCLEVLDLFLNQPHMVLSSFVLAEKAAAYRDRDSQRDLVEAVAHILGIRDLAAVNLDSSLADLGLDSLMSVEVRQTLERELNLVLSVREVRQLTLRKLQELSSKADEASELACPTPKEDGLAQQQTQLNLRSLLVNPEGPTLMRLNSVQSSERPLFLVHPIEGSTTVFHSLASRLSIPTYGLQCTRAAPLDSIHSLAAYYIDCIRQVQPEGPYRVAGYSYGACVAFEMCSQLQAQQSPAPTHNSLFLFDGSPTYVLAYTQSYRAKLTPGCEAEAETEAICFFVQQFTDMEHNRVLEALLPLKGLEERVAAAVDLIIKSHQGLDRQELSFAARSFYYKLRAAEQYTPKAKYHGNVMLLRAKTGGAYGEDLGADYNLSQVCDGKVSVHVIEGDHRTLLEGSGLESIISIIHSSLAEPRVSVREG

`C=CCNC(=O)[C@H]1[C@H](CCCCCCCC)OC(=O)[C@H]1C` (racemic) displayed a concentration for half-maximal inhibition (IC50) in experiment [1] of 25.7 µg/mL (≈ 87 µM). Moreover, the “FAS (IC50)” value at purified human FAS is “Neg”.

For the compound `CCCCCCCCC1OC(=O)[C@@H](C)[C@H]1C(=O)O` (stereo partly drawn), the half-inhibitory concentration (IC50) in experiment [1] worked out at 31 µg/mL (≈ 121 µM). In addition, the “FAS (IC50)” value on purified human FAS was “Neg”.

For the compound `CCCCCCCCC1OC(=O)[C@H](C)[C@H]1C(=O)O` (stereo partly drawn), in experiment [1], the “14C (IC50)” value is given as “Neg”. For the same compound, the “FAS (IC50)” value on purified human FAS is on record as “Neg”.

As to `C=C1C(=O)O[C@@H](CCCCCCCC)[C@@H]1C(=O)NCC(=O)O` (racemic), the “FAS (IC50)” value on purified human FAS is listed as “Neg”.

Compound `C=C1C(=O)O[C@@H](CCCCCCCC)[C@@H]1C(=O)NCCO` (racemic) had an IC50 in experiment [1] of 2.3 ± 1.3 µg/mL (≈ 7.73 µM). Besides, the “FAS (IC50)” value on purified human FAS is reported as “Neg”.

In the case of `C=CCNC(=O)[C@@H]1C(=C)C(=O)O[C@H]1CCCCCC` (racemic), the figures for the IC50 (in experiment [1]; against purified human FAS) were 3.3 µg/mL (≈ 12.4 µM) and 305 µM, respectively.

The compound `C=C1C(=O)O[C@@H](CCCCCCCC)[C@@H]1C(=O)NCC(=O)OC` (racemic) had an IC50 in experiment [1] of 1.1 ± 0.03 µg/mL (≈ 3.38 µM). The “FAS (IC50)” value at purified human FAS is on record as “Neg”.

Turning to `C=CCNC(=O)C1=C(C)C(=O)O[C@H]1CCCCCCCC`, the “14C (IC50)” value in experiment [1] is reported as “Neg (stim)”. At purified human FAS, this compound showed an IC50 of 317 µM.

Consider `C=CCNC(=O)[C@H]1[C@H](CCCCCCCC)OC(=O)[C@@H]1C` (racemic), for which, in experiment [1], the “14C (IC50)” value is “Neg”. On purified human FAS, the midpoint of inhibition, the IC50, lay at 450 µM.

For the compound `C=CCNC(=O)[C@@H]1C(=C)C(=O)O[C@H]1CCCCCCCC` (racemic), the IC50 in experiment [1] was found to be 0.75 ± 0.4 µg/mL (≈ 2.56 µM). Moreover, the “FAS (IC50)” value at purified human FAS was “Neg”.

Consider `C=CCNC(=O)[C@@H]1C(=C)C(=O)O[C@H]1CCCC` (racemic), for which the concentration for half-maximal inhibition (IC50) is 1.8 ± 0.3 µg/mL (≈ 7.59 µM) in experiment [1] and 451 µM against purified human FAS.

For orientation: IC50 means the concentration needed to halve the response being measured. Read a high IC50 as weaker potency.
